Experiments:
[1] = target: Casein kinase II subunit alpha' (Homo sapiens) (UniProt P19784)
[2] = target: Serine/threonine-protein kinase 16 (Homo sapiens) (UniProt O75716)
[3] = target: Mitogen-activated protein kinase kinase kinase kinase 3 (Homo sapiens) (UniProt Q8IVH8)
[4] = target: Tyrosine-protein kinase JAK1 (Homo sapiens) (UniProt P23458)
[5] = test system: Receptor-type tyrosine-protein kinase FLT3 (Homo sapiens), P36888 [D835V]
[6] = target: Serine/threonine-protein kinase 36 (Homo sapiens) (UniProt Q9NRP7)
[7] = target: Phosphatidylinositol 3-kinase catalytic subunit type 3 (Homo sapiens) (UniProt Q8NEB9)
[8] = target: Fibroblast growth factor receptor 4 (Homo sapiens) (UniProt P22455)
[9] = target: Proto-oncogene tyrosine-protein kinase receptor Ret (Homo sapiens) (UniProt P07949)
[10] = target: Tyrosine-protein kinase SYK (Homo sapiens) (UniProt P43405)
[11] = target: Wee1-like protein kinase 2 (Homo sapiens) (UniProt P0C1S8)
[12] = target: Serine/threonine-protein kinase PLK1 (Homo sapiens) (UniProt P53350)
[13] = target: T1, Inhibitor of nuclear factor kappa-B kinase subunit epsilon (Homo sapiens) (UniProt Q14164)
T1 sequence (whole entry): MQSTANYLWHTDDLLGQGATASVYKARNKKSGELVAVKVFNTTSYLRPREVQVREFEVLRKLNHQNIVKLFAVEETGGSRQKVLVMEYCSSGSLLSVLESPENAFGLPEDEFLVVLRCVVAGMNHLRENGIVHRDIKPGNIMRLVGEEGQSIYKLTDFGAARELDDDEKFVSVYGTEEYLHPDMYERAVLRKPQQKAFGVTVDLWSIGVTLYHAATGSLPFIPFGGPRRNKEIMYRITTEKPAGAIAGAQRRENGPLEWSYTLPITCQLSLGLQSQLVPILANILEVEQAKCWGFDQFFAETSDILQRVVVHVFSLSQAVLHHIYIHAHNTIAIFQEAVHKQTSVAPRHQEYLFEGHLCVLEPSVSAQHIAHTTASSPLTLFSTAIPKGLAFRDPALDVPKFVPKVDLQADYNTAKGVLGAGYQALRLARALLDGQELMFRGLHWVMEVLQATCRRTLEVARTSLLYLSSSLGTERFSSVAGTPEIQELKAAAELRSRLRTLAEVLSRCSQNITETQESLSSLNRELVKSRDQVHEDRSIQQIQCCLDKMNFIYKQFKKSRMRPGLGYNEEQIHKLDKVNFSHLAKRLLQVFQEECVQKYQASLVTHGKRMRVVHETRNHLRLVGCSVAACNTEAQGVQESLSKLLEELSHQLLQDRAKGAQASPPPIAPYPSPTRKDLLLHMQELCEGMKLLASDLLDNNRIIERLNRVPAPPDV

[14] = target: Mitogen-activated protein kinase kinase kinase 9 (Homo sapiens, UniProt P80192)
[15] = target: Mast/stem cell growth factor receptor Kit (Homo sapiens) (UniProt P10721)
[16] = target: Bone morphogenetic protein receptor type-1B (Homo sapiens) (UniProt O00238)
[17] = target: 5-hydroxytryptamine receptor 5A (Homo sapiens) (UniProt P47898); settings: Compound concentration 10.0 uM
[18] = target: Tyrosine-protein kinase receptor Tie-1 (Homo sapiens) (UniProt P35590)
[19] = target: Tyrosine-protein kinase ABL2 (Homo sapiens) (UniProt P42684)
[20] = target: Serine/threonine-protein kinase Sgk3 (Homo sapiens) (UniProt Q96BR1)
[21] = test system: Mast/stem cell growth factor receptor Kit (Homo sapiens), P10721 [D816V]
[22] = target: Serine/threonine-protein kinase PAK 6 (Homo sapiens) (UniProt Q9NQU5)
[23] = target: Dual specificity mitogen-activated protein kinase kinase 7 (Homo sapiens) (UniProt O14733)
[24] = target: Ribosomal protein S6 kinase alpha-3 (Homo sapiens) (UniProt P51812)
[25] = target: Calcium/calmodulin-dependent protein kinase type II subunit gamma (Homo sapiens) (UniProt Q13555)
[26] = target: Mitogen-activated protein kinase kinase kinase 3 (Homo sapiens) (UniProt Q99759)
[27] = target: Serine/threonine-protein kinase Sgk2 (Homo sapiens) (UniProt Q9HBY8)
[28] = target: Tyrosine-protein kinase ITK/TSK (Homo sapiens) (UniProt Q08881)
[29] = target: Ribosomal protein S6 kinase alpha-1 (Homo sapiens) (UniProt Q15418)
[30] = target: Serine/threonine-protein kinase OSR1 (Homo sapiens) (UniProt O95747)
[31] = target: Serine/threonine-protein kinase PLK3 (Homo sapiens) (UniProt Q9H4B4)
[32] = target: Serine/threonine-protein kinase PknB (Mycobacterium tuberculosis) (UniProt P9WI81)
[33] = target: cAMP-dependent protein kinase catalytic subunit PRKX (Homo sapiens) (UniProt P51817)
[34] = target: Tyrosine-protein kinase receptor TYRO3 (Homo sapiens) (UniProt Q06418)
[35] = target: Mitogen-activated protein kinase kinase kinase kinase 4 (Homo sapiens) (UniProt O95819)
[36] = Compound concentration 100.0 nM
[37] = Compound concentration 1000.0 nM

Chain of Serine/threonine-protein kinase OSR1 (Homo sapiens) (O95747 2-527 limits assumed): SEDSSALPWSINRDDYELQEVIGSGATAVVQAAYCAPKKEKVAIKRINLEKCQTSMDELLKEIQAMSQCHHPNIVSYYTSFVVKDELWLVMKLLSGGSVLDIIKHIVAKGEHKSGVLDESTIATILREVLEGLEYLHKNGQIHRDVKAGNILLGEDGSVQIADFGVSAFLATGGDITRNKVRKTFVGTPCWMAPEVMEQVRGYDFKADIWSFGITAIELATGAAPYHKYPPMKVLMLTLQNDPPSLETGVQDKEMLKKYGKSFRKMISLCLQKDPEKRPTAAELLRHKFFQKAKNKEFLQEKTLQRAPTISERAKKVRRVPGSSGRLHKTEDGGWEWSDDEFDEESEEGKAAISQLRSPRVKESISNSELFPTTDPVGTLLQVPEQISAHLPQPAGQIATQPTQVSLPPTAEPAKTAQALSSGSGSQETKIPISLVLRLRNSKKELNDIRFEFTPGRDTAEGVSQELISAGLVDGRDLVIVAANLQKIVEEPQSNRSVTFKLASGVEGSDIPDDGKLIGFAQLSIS
Chain of Serine/threonine-protein kinase PLK3 (Homo sapiens) (Q9H4B4 whole entry, looked up): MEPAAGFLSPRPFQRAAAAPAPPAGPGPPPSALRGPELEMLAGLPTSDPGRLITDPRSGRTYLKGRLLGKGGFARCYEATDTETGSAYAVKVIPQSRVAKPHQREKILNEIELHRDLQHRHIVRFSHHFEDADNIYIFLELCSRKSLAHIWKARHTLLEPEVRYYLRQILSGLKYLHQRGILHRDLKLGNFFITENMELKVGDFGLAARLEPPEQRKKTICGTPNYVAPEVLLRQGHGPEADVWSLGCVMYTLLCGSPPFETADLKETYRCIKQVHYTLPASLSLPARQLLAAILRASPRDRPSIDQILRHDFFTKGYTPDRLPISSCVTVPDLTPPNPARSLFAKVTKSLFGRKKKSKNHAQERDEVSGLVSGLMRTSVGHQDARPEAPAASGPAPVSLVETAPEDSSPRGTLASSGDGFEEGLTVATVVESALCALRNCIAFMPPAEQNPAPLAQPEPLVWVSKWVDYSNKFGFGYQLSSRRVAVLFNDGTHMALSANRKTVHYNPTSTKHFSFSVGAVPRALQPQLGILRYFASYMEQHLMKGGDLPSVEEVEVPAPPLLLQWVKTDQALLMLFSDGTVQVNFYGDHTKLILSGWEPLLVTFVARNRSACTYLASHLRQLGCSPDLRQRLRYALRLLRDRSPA
Chain of Ribosomal protein S6 kinase alpha-1 (Homo sapiens) (Q15418 whole entry): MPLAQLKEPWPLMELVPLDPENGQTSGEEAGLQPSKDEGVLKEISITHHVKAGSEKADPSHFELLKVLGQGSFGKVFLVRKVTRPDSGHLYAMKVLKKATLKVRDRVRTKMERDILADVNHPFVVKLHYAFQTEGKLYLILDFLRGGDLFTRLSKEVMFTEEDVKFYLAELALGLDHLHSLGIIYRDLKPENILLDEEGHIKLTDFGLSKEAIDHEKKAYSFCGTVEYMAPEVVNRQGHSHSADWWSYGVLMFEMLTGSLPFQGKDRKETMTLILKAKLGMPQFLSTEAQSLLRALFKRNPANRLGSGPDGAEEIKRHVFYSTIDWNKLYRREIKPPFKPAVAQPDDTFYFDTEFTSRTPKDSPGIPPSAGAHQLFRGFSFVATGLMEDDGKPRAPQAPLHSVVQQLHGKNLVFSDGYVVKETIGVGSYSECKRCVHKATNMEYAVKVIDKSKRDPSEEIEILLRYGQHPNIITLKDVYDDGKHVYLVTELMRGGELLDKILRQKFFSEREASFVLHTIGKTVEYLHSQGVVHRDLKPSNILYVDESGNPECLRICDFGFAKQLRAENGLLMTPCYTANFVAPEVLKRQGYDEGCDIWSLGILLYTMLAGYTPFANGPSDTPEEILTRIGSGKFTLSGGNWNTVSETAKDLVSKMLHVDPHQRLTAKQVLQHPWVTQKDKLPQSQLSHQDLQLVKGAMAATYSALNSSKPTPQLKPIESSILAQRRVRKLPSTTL
Chain of Mitogen-activated protein kinase kinase kinase 3 (Homo sapiens) (Q99759 whole entry): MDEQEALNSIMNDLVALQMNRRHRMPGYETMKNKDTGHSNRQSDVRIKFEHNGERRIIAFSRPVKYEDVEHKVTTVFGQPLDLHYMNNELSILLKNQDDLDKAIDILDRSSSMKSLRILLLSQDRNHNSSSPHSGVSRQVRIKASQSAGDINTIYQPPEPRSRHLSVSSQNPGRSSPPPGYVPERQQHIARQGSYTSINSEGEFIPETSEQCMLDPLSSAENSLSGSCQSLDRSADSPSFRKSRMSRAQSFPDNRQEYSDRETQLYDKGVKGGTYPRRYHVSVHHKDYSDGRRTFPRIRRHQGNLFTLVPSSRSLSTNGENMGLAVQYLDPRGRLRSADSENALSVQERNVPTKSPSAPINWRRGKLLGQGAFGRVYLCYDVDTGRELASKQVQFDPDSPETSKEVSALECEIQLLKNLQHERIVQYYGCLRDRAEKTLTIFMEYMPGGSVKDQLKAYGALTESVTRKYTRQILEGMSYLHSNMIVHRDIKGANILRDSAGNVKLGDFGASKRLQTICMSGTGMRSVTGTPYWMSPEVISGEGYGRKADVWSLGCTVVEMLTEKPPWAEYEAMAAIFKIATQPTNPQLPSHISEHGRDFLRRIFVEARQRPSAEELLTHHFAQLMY
Chain of Mitogen-activated protein kinase kinase kinase kinase 3 (Homo sapiens) (Q8IVH8 whole entry): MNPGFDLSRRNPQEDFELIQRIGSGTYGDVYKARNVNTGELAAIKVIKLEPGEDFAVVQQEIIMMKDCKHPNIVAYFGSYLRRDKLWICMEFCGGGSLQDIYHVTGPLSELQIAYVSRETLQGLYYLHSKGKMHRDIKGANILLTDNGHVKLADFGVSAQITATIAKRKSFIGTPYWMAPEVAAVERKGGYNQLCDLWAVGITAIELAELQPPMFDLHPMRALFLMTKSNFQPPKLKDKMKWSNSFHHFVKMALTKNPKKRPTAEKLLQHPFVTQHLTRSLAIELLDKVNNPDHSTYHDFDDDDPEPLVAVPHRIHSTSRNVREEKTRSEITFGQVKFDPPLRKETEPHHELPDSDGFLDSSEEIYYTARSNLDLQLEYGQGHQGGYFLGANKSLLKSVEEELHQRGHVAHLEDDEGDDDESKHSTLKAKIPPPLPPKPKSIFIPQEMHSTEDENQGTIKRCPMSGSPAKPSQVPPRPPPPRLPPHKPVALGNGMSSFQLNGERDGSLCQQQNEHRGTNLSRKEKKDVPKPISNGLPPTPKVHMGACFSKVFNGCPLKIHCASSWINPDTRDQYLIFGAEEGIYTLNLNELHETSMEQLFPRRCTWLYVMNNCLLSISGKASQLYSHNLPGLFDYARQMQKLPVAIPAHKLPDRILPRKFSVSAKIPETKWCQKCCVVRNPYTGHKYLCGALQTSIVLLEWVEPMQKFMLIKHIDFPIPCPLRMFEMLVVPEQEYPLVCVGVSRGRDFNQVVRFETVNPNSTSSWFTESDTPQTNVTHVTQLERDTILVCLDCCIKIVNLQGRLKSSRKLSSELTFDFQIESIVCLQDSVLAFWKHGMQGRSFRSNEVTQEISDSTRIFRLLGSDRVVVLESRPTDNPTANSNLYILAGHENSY
Chain of Mast/stem cell growth factor receptor Kit (Homo sapiens) (P10721 whole entry): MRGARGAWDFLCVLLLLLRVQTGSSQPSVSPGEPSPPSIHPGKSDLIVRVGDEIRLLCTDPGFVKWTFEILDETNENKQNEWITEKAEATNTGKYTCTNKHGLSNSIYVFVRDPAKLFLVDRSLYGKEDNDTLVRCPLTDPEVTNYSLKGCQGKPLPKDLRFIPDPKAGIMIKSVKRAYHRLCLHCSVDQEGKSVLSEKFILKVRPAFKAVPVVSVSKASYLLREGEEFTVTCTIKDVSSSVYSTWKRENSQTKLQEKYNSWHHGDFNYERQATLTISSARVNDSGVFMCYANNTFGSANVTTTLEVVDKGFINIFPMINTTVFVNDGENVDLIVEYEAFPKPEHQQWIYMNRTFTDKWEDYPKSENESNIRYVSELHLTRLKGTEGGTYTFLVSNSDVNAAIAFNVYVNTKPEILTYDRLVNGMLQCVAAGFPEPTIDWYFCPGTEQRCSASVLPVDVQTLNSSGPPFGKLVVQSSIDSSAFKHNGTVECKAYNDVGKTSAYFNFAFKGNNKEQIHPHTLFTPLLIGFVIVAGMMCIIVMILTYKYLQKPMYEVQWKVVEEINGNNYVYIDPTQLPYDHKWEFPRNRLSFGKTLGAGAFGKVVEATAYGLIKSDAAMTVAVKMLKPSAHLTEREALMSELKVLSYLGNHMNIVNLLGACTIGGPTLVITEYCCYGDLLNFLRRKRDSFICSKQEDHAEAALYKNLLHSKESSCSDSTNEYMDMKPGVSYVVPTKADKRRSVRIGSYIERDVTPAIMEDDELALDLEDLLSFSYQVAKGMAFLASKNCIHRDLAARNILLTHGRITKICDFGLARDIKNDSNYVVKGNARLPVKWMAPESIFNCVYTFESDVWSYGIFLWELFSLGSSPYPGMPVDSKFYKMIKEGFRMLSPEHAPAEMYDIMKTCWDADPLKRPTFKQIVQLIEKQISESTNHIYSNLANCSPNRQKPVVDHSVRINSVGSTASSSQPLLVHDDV
Chain of Tyrosine-protein kinase ITK/TSK (Homo sapiens) (Q08881 whole entry): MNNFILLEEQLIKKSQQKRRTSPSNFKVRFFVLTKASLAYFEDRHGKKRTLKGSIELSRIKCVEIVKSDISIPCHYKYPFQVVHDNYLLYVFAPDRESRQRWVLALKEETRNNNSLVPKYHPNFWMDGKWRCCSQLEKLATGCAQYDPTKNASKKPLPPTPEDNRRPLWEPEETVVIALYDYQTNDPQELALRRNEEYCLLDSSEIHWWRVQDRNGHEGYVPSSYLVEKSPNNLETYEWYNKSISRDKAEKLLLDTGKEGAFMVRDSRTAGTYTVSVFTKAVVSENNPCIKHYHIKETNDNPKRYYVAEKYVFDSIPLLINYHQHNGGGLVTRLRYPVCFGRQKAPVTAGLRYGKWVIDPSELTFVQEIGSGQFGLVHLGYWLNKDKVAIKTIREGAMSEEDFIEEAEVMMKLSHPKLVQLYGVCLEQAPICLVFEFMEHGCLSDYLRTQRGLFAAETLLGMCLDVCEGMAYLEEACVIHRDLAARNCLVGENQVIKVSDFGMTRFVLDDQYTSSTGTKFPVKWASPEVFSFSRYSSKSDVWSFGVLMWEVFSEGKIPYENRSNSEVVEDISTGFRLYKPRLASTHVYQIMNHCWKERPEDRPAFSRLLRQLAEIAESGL
Chain of Mast/stem cell growth factor receptor Kit (Homo sapiens), P10721 [D816V] (P10721 whole entry D816V): as the sequence (P10721 whole entry) above, with D816V counted along it

## CNC(=O)c1ccc(Nc2ncc(C(F)(F)F)c(NCc3nccnc3N(C)S(C)(=O)=O)n2)cc1 [DEFACTINIB]
[1]; [36]
  residual activity: 28%
[2]; [36]
  residual activity: 7.7%
[3]; [36]
  residual activity: 95%
[4]; [36]
  residual activity: 28%
[5]; [36]
  residual activity: 0.2%
[6]; [36]
  residual activity: 89%
[7]; [36]
  residual activity: 100%
[8]; [36]
  residual activity: 95%
[9]; [36]
  residual activity: 60%
[10]; [36]
  residual activity: 66%
[11]; [36]
  residual activity: 97%
[12]; [36]
  residual activity: 84%
[13]; [36]
  residual activity: 99%
[14]; [36]
  residual activity: 44%
[15]; [36]
  residual activity: 84%
[16]; [36]
  residual activity: 65%
[17]
  inhibition: -1.91%
[18]; [36]
  residual activity: 47%
[19]; [36]
  residual activity: 93%
[20]; [36]
  residual activity: 85%
[21]; [36]
  residual activity: 80%
[22]; [36]
  residual activity: 100%
[23]; [36]
  residual activity: 97%
[24]; [36]
  residual activity: 100%
[25]; [36]
  residual activity: 79%
[26]; [36]
  residual activity: 81%
[27]; [36]
  residual activity: 96%
[28]; [36]
  residual activity: 80%
[29]; [36]
  residual activity: 71%
[30]; [36]
  residual activity: 100%
[31]; [36]
  residual activity: 91%
[32]; [36]
  residual activity: 69%
[33]; [36]
  residual activity: 95%
[34]; [36]
  residual activity: 100%
[35]; [36]
  residual activity: 98%

## CN(c1ccnc(CNc2nc(Nc3ccc4c(c3)CC(=O)N4)ncc2C(F)(F)F)n1)S(C)(=O)=O [PF-00911705]
[1]; [37]
  residual activity: 6.7%
[2]; [37]
  residual activity: 1.5%
[3]; [37]
  residual activity: 87%
[4]; [37]
  residual activity: 94%
[5]; [37]
  residual activity: 1.5%
[6]; [37]
  residual activity: 87%
[7]; [37]
  residual activity: 84%
[8]; [37]
  residual activity: 83%
[9]; [37]
  residual activity: 49%
[10]; [37]
  residual activity: 5.7%
[11]; [37]
  residual activity: 28%
[12]; [37]
  residual activity: 7.6%
[13]; [37]
  residual activity: 18%
[14]; [37]
  residual activity: 41%
[15]; [37]
  residual activity: 85%
[16]; [37]
  residual activity: 3.6%
[17]
  inhibition: 1.82%
[18]; [37]
  residual activity: 17%
[19]; [37]
  residual activity: 75%
[20]; [37]
  residual activity: 87%
[21]; [37]
  residual activity: 28%
[22]; [37]
  residual activity: 71%
[23]; [37]
  residual activity: 73%
[24]; [37]
  residual activity: 85%
[25]; [37]
  residual activity: 100%
[26]; [37]
  residual activity: 44%
[27]; [37]
  residual activity: 75%
[28]; [37]
  residual activity: 93%
[29]; [37]
  residual activity: 68%
[30]; [37]
  residual activity: 86%
[31]; [37]
  residual activity: 1.7%
[32]; [37]
  residual activity: 80%
[33]; [37]
  residual activity: 15%
[34]; [37]
  residual activity: 99%
[35]; [37]
  residual activity: 82%
